Experimental data taken from patent US9982234B2, “Culture medium composition for improving regenerative capacity of stem cells, and stem cell culturing method using same” (R BIO CO., LTD., priority 2013, dated 2018).

Assays:
Type in all cases: cell-based, human
[1] = tested on: adipose mesenchymal stem cells; assay: Telomerase activity of stem cells (Telo TAGGG Telomerase PCR ELISA kit); design: telomerase activity (N = 3): unit not given here; conditions: for telomerase activity (N = 3): cells cultured to passage 3
Description: (§1) While the adipose mesenchymal stem cells isolated in Example 1 was cultured in each of the media, the adipose mesenchymal stem cells were collected at different days of culture, and the viability, cell size and CPDL of the cells were measured. Also, telomerase activity was measured for the cells subcultured to passage 3. The Alnus japonica extract in medium 11 was prepared in the following manner.
Adipose mesenchymal stem cells isolated from persons in their 40s, 50s and 60s according to the method of Example 1 were cultured to passage 3 in each of the media shown in Table 4 above, and then the telomerase activity of the stem cells was measured using Telo TAGGG Telomerase PCR ELISA kit (Roche).

[2] = tested on: adipose mesenchymal stem cells; assay: Morphology of stem cells under phase contrast microscope; conditions: 4 days of culture; result in words
Description: (§2) The adipose mesenchymal stem cells of three persons, obtained by subculture to passage 3 in Example 1, were seeded into each of the following media and cultured for 4 days. During 4 days of culture, the morphology of the cells was observed. In addition, the size, viability and CDPL (cell population doubling level) of the cells were measured and expressed as mean values.
The morphology of the stem cells was observed under a phase contrast microscope and photographed (see FIG. 1).

[3] = tested on: adipose mesenchymal stem cells; assay: Size of stem cells (Luna automated cell counter); conditions: for effect on the size of the cells: 4 days of culture, result in words; for size of stem cells: mean n=3
Description: as §2, §1
The adipose mesenchymal stem cells isolated in Example 1 were seeded in each of the media, and then treated with trypsin at different days of culture. Next, the adipose mesenchymal stem cells were collected, and the size (μm) of the stem cells was measured using Luna™ automated cell counter (n=3).

[4] = tested on: adipose mesenchymal stem cells; assay: Viability of stem cells (Luna automated cell counter); design: viability of stem cells: unit not given here; conditions: for effect on the viability of the cells: 4 days of culture, result in words; for viability of stem cells: mean n=3
Description: as §2, §1
The viability of the stem cells was measured using Luna™ automated cell counter (n=3).

[5] = tested on: adipose mesenchymal stem cells; assay: Cell population doubling level (CPDL) of stem cells
Description: as §2, §1
The cell population doubling level (CPDL) of the stem cells was calculated using the following equation: CPDL=[…], wherein Nfinal: the number of finally obtained cells; and Ninitial: the number of initially seeded cells.

[6] = Day 1 post seeding, 20 nM in M9 medium
[7] = Day 1 post seeding, 50 nM in M9 medium
[8] = Day 2 post seeding, 20 nM in M9 medium
[9] = Day 2 post seeding, 50 nM in M9 medium
[10] = Day 3 post seeding, 20 nM in M9 medium
[11] = Day 3 post seeding, 50 nM in M9 medium
[12] = Day 4 post seeding, 20 nM in M9 medium
[13] = Day 4 post seeding, 50 nM in M9 medium

COC1=C(OC)C(=O)C(C/C=C(\C)CC/C=C(\C)CC/C=C(\C)CC/C=C(\C)CC/C=C(\C)CC/C=C(\C)CC/C=C(\C)CC/C=C(\C)CC/C=C(\C)CCC=C(C)C)=C(C)C1=O [Coenzyme Q10, coenzyme Q-10]
telomerase activity (N = 3) ([1]; 5 μM in M9 medium): 2.817
telomerase activity (N = 3) ([1]; 10 μM in M9 medium): 1.964
effect on the morphology of the cells [2]: no significant effect on the morphology
effect on the size of the cells [3]: no significant effect on the size
effect on the viability of the cells [4]: no significant effect on the viability

Cc1c(-c2cnccn2)ssc1=S [Oltipraz, oltipraz]
telomerase activity (N = 3) ([1]; 7 μM in M9 medium): 1.968
telomerase activity (N = 3) ([1]; 10 μM in M9 medium): 2.137

Oc1ccc(C=Cc2cc(O)cc(O)c2)cc1 [Resveratrol]
telomerase activity (N = 3) ([1]; 1 μM in M9 medium): 2.042
telomerase activity (N = 3) ([1]; 2 μM in M9 medium): 1.654

CC(C)(C)c1cc(O)ccc1O [TBH-Q, T-BHQ]
telomerase activity (N = 3) ([1]; 5 μM in M9 medium): 2.524
telomerase activity (N = 3) ([1]; 20 μM in M9 medium): 2.838

apelin
cell population doubling level (CPDL) ([5]; Day 0 post seeding, 20 nM in M9 medium): 0.00
cell population doubling level (CPDL) ([5]; Day 0 post seeding, 50 nM in M9 medium): 0.00
cell population doubling level (CPDL) [5, 6]: 0.89
cell population doubling level (CPDL) [5, 7]: 0.56
cell population doubling level (CPDL) [5, 8]: 2.84
cell population doubling level (CPDL) [5, 9]: 1.65
cell population doubling level (CPDL) [5, 10]: 6.54
cell population doubling level (CPDL) [5, 11]: 5.11
cell population doubling level (CPDL) [5, 12]: 9.28
cell population doubling level (CPDL) [5, 13]: 8.20
ability to proliferate ([5]; cultured in medium containing the substance, result in words): proliferation ability efficiently increased
telomerase activity (N = 3) ([1]; 5 nM in M9 medium): 2.838
telomerase activity (N = 3) ([1]; 20 nM in M9 medium): 3.068
telomerase activity compared between media ([1]; 20 nM, passage 3, result in words): highest telomerase activity
effect on the morphology of the cells [2]: no significant effect on the morphology
effect on the size of the cells [3]: no significant effect on the size
size of stem cells [3, 6]: 19.0 μm
size of stem cells [3, 7]: 18.6 μm
size of stem cells [3, 8]: 18.3 μm
size of stem cells [3, 9]: 15.6 μm
size of stem cells [3, 10]: 18.2 μm
size of stem cells [3, 11]: 18.0 μm
size of stem cells [3, 12]: 18.5 μm
size of stem cells [3, 13]: 17.9 μm
effect on the viability of the cells [4]: no significant effect on the viability
viability of stem cells [4, 6]: 97.2
viability of stem cells [4, 7]: 91.7
viability of stem cells [4, 8]: 98.9
viability of stem cells [4, 9]: 100
viability of stem cells [4, 10]: 98.8
viability of stem cells [4, 11]: 98.8
viability of stem cells [4, 12]: 99.4
viability of stem cells [4, 13]: 99.2
